Test results taken from paper PMC11375786, “Induction of Paraptotic Cell Death in Cancer Cells by Triptycene–Peptide Hybrids and the Revised Mechanism of Paraptosis II” (Biochemistry, 2024).
Read-outs that look alike come from different tables or passages of the source.

Experiments:
A549 cells [1] = assay: cells; conditions: 1 h
Procedure: (§1) HeLa S3 cells (human cervical carcinoma) were cultured in Minimum essential medium (MEM) containing 10% FBS, penicillin, and streptomycin. A549 cells (human lung carcinoma) and IMR90 cells (human fetal lung fibroblast) were cultured in Dulbecco’s modified Eagle’s medium (DMEM) with 10% FBS, penicillin, and streptomycin. All cells were cultured at 37 °C under a humidified atmosphere containing 5% CO2.
(§2) Jurkat, HeLa-S3, A549 cells (2.0 × 10^5 cells/mL) and IMR90 cells (1.0 × 10^5 cells/mL) were incubated in the presence of 3–7 for 1 h, and etoposide, cisplatin and celastrol for 24 h (50 μL) in cell culture medium under CO2 at 37 °C in 96-well plates (BD Falcon). MTT reagent (5 mg/mL) in PBS (10 μL) was then added to the cells. After incubation at 37 °C for 4 h, a formazan lysis solution (10% sodium dodecyl sulfate (SDS) in 0.01 N HCl) (100 μL) was added and the resultant solution was incubated overnight under the same conditions, which was followed by measurement of the absorbance at 570 nm using a microplate reader (ARVO, PerkinElmer).

HeLa-S3 cells [2] = assay: cells; conditions: 1 h
Procedure: as §1, §2

IMR90 cells [3] = assay: cells
Procedure: as §1, §2

Jurkat cells [4] = assay: cells; conditions: 1 h
Procedure: as §1, §2

Jurkat cells [5] = type: cell-based; conditions: 1 h
Procedure: MTT reagent (5 mg/mL) in PBS (10 μL) was then added to the cells. After incubation at 37 °C for 4 h, a formazan lysis solution (10% sodium dodecyl sulfate (SDS) in 0.01 N HCl) (100 μL) was added and the resultant solution was incubated overnight under the same conditions, which was followed by measurement of the absorbance at 570 nm using a microplate reader (ARVO, PerkinElmer).

[6] = test system: Ca^2+ concentrations in mitochondria and cytosol in Jurkat cells; assay: Rhod-2/AM and Rhod-4/AM emission (mitochondrial and cytosolic Ca2+) in Jurkat cells; type: cell-based; conditions: 4 2.5 μM, 0–60 min
Procedure: (§3) Jurkat, HeLa-S3, and A549 cells (2.0 × 10^5 cells) were preincubated with Rhod-2/AM (final concentration = 5 μM) or Rhod-4/AM (final concentration = 5 μM) in medium under 5% CO2 at 37 °C for 30 min and then treated with 4 (final concentration = 2.5, 5, or 10 μM) for 0, 15, 30, 45, and 60 min. HeLa-S3 and A549 cells were detached by accutase, immediately after which the cells were suspended in 300 μL of cell culture medium and then analyzed on a flow cytometer (FACS Calibur cytometer, Becton), and the data were analyzed using the FlowJo software (FlowJo, LCC).
Jurkat, HeLa-S3, A549, and IMR90 cells (2.0 × 10^5 cells) were stained with Rhod-2/AM or Rhod-4/AM (final concentration = 5 μM) for 30 min at 37 °C under 5% CO2. […] After washing with PBS, the cells were observed via fluorescence microscopy (BZ-X800, Keyence) using a Greiner CELLview Petri dish (35 × 10 mm^2). […]
(§4) Jurkat, HeLa-S3, A549, and IMR90 cells (8.0 × 10^4 cells) were incubated with CCCP or 2-APB for 1 h and then stained with Rhod-2/AM or Rhod-4/AM (final concentration = 5 μM) for 30 min at 37 °C under 5% CO2. The cells were washed with PBS and were treated with 4 (final concentration = 2.5, 5, or 10 μM) in PBS for 0–60 min at 37 °C in a microplate reader (ARVO, PerkinElmer). Excitation at 540 nm and emission at 590 nm were used for the measurement of Rhod-2/AM and Rhod-4/AM on the microplate reader.

[7] = test system: Ca^2+ concentrations in mitochondria and cytosol in HeLa-S3 cells; assay: Rhod-2/AM and Rhod-4/AM emission (mitochondrial and cytosolic Ca2+) in HeLa-S3 cells; type: cell-based, human; conditions: 4 5 μM 1 h
Procedure: as §3
(§5) Jurkat, HeLa-S3, A549, and IMR90 cells (2.0 × 10^5 cells) were stained with Rhod-2/AM or Rhod-4/AM (final concentration = 5 μM) for 30 min at 37 °C under 5% CO2. The cells were washed with PBS and were treated with 4 (final concentration = 2.5, 5, or 10 μM) in cell culture medium for 30 and 60 min at 37 °C under 5% CO2. To test the effect of celastrol and cisplatin in HeLa-S3 and A549 cells, the cells were incubated with celastrol (final concentration = 100 μM) and cisplatin (final concentration = 100 μM) for 2–6 h. After washing with PBS, the cells were observed via fluorescence microscopy (BZ-X800, Keyence) using a Greiner CELLview Petri dish (35 × 10 mm^2). Emission images were observed using a TRITC filter (excitation 540 nm, emission 605 nm).
as §4

[8] = test system: Ca^2+ concentrations in mitochondria and cytosol in A549 cells; assay: Rhod-2/AM and Rhod-4/AM emission (mitochondrial and cytosolic Ca2+) in A549 cells; type: cell-based, human; conditions: 4 10 μM 1 h; celastrol 100 μM 2–6 h
Procedure: as §3, §5, §4

[9] = test system: Ca^2+ concentrations in mitochondria in IMR90 cells; assay: Rhod-2/AM emission (mitochondrial Ca2+) in IMR90 cells; type: cell-based, human; conditions: 4 5 μM, 0–60 min
Procedure: as §5, §4

Jurkat cells [10] = assay: Costaining of ER and mitochondria (ERTracker Red, MitoTracker Green), confocal microscopy, Jurkat cells; type: cell-based; conditions: 4 2.5 μM, 15 min
Procedure: (§6) Jurkat, HeLa-S3, A549, and IMR90 cells (2.0 × 10^5 cells) were incubated with 4 (final concentration = 2.5 μM (for Jurkat), 5 μM (for HeLa-S3), 10 μM (for A549) and 5 μM and 50 μM (for IMR90)) in cell culture medium at 37 °C under 5% CO2. After incubation, MitoTracker Green (final concentration = 100 nM (for Jurkat) or 500 nM (for HeLa-S3, A549 and IMR90)), or ERTracker Red (final concentration = 500 nM (for Jurkat) or 1 μM (for HeLa-S3, A549 and IMR90)) were applied for 1 h under the same conditions. After washing with PBS, the cells were observed via confocal fluorescence microscopy (FluoView, FV-1000, Olympus). Excitation at 473 nm and emissions from 485 to 585 nm were used for detecting the MitoTracker Green. Excitation at 559 nm and emissions from 570 to 670 nm were used for detecting the ERTracker Red. Exposure time was 20 μs/pixel.

HeLa-S3 cells [11] = assay: Costaining of ER and mitochondria (ERTracker Red, MitoTracker Green), confocal microscopy, HeLa-S3 cells; type: cell-based, human; conditions: 4 5 μM, 5 and 10 min; celastrol 100 μM
Procedure: as §6

A549 cells [12] = assay: Costaining of ER and mitochondria (ERTracker Red, MitoTracker Green), confocal microscopy, A549 cells; type: cell-based, human; conditions: 4 10 μM, 15 min; celastrol 100 μM
Procedure: as §6

IMR90 cells [13] = assay: Costaining of ER and mitochondria (ERTracker Red, MitoTracker Green), confocal microscopy, IMR90 cells; type: cell-based, human; conditions: 4 5 or 50 μM, 15 or 60 min
Procedure: as §6

[14] = test system: labile Fe^2+ in mitochondria of Jurkat cells; assay: Mito-FerroGreen fluorescence microscopy in Jurkat cells; type: cell-based; conditions: 4 2.5 μM 1 h; celastrol 5 μM, etoposide 5 μM, cisplatin 100 μM 24 h
Procedure: (§7) Jurkat cells (2.0 × 10^5 cells) were treated with 4 (2.5 μM), etoposide (5 μM), cisplatin (100 μM) and celastrol (5 μM) and stained with Mito-FerroGreen (a probe for labile Fe^2+ in mitochondria) (5 μM) and zinquin (a probe for intracellular Zn^2+) (25 μM). The cell images were observed via fluorescence microscopy.

[15] = test system: intracellular Zn^2+ in Jurkat cells; assay: Zinquin fluorescence microscopy in Jurkat cells; type: cell-based; conditions: 4 2.5 μM 1 h; celastrol 5 μM, etoposide 5 μM, cisplatin 100 μM 24 h
Procedure: as §7

EC50 (A549 cells [1]): 2.4 ± 0.1 µM | EC50 (HeLa-S3 cells [2]): 1.6 ± 0.1 µM | EC50 (IMR90 cells [3]; 1 h): > 12.5 µM | EC50 (IMR90 cells [3]; 5 h): 4.4 µM | EC50 (Jurkat cells [4]): 0.7 ± 0.1 µM | EC50 (Jurkat cells [5]): 1.8 µM
SMILES: NCCCC[C@H](NC(=O)[C@H](CCCCN)NC(=O)[C@@H](N)CCCCN)C(=O)N[C@@H](CC1CCCCC1)C(=O)NCC(=O)NCCCCCCCCNC(=O)COc1cccc2c1C1c3c(OCC(=O)NCCCCCCCCNC(=O)CNC(=O)[C@H](CC4CCCCC4)NC(=O)[C@H](CCCCN)NC(=O)[C@H](CCCCN)NC(=O)[C@@H](N)CCCCN)cccc3C2c2cccc(OCC(=O)NCCCCCCCCNC(=O)CNC(=O)[C@H](CC3CCCCC3)NC(=O)[C@H](CCCCN)NC(=O)[C@H](CCCCN)NC(=O)[C@@H](N)CCCCN)c21 [compound 4]
Emission of Rhod-4/AM (cytosolic Ca2+) in Jurkat cells [6]: moderate∼weak enhancement | Emission of Rhod-4/AM (cytosolic Ca2+) in HeLa-S3 cells ([7]; celastrol 100 μM 2–6 h): negligible enhancement | Emission of Rhod-2/AM (mitochondrial Ca2+) in HeLa-S3 cells ([7]; celastrol or cisplatin 100 μM 2–6 h): enhancement of the red emission | Emission of Rhod-2/AM (mitochondrial Ca2+) in A549 cells [8]: enhancement of the red emission | Emission of Rhod-4/AM (cytosolic Ca2+) in A549 cells [8]: negligible enhancement | Emission of Rhod-2/AM (mitochondrial Ca2+) in IMR90 cells [9]: somewhat slower emission enhancement | Overlap of emission from MitoTracker Green and ERTracker Red in Jurkat cells (Jurkat cells [10]): considerable overlap | Overlap of emission from MitoTracker Green and ERTracker Red in HeLa-S3 cells (HeLa-S3 cells [11]): considerable overlap | Overlap of emission from MitoTracker Green and ERTracker Red in A549 cells (A549 cells [12]): considerable overlap | Overlap of emission from MitoTracker Green and ERTracker Red in IMR90 cells (IMR90 cells [13]): weak overlap | Emission from Mito-FerroGreen (free Fe2+ in mitochondria) in Jurkat cells [14]: negligibly enhanced | Emission from zinquin (intracellular free Zn2+) in Jurkat cells [15]: negligibly enhanced
